Data: the NIST ThermoML archive (doi:10.1016/j.jct.2014.05.014)

Assay: cn = amount concentration of the nth substance listed, in mol/dm3
Details: 101.3 kPa, Liquid; for electrical conductivity: Alternating current cell with electrodes; for viscosity: Falling or rolling sphere viscometry; for mass density: Vibrating tube method

CC(N)C(=O)[O-].[Na+] (stereo not drawn) [sodium DL-alaninate] + O
Details	electrical conductivity [S/m]	mass density [kg/m3]	viscosity [mPa·s]
303.15 K, c1 = 0.478	–	–	0.98
303.15 K, c1 = 0.498	2.82	1021.4	–
303.15 K, c1 = 0.985	–	1045.4	–
303.15 K, c1 = 0.99	4.45	–	–
303.15 K, c1 = 0.994	–	–	1.232
303.15 K, c1 = 1.485	5.36	–	–
303.15 K, c1 = 1.495	–	1069	1.579
303.15 K, c1 = 1.975	–	1090.8	2.011
303.15 K, c1 = 1.983	5.78	–	–
303.15 K, c1 = 2.467	–	1113.1	–
303.15 K, c1 = 2.476	5.77	–	–
303.15 K, c1 = 2.496	–	–	2.683
303.15 K, c1 = 3.032	–	–	3.708
303.15 K, c1 = 3.048	5.43	–	–
303.15 K, c1 = 3.063	–	1139.4	–
308.15 K, c1 = 0.478	–	–	0.877
308.15 K, c1 = 0.498	3.11	1019.6	–
308.15 K, c1 = 0.985	–	1043.4	–
308.15 K, c1 = 0.99	4.92	–	–
308.15 K, c1 = 0.994	–	–	1.099
308.15 K, c1 = 1.485	5.94	–	–
308.15 K, c1 = 1.495	–	1066.9	1.423
308.15 K, c1 = 1.975	–	1088.5	1.771
308.15 K, c1 = 1.983	6.45	–	–
308.15 K, c1 = 2.467	–	1110.7	–
308.15 K, c1 = 2.476	6.48	–	–
308.15 K, c1 = 2.496	–	–	2.341
308.15 K, c1 = 3.032	–	–	3.187
308.15 K, c1 = 3.048	6.17	–	–
308.15 K, c1 = 3.063	–	1136.8	–
313.15 K, c1 = 0.478	–	–	0.796
313.15 K, c1 = 0.498	3.42	1017.7	–
313.15 K, c1 = 0.985	–	1041.4	–
313.15 K, c1 = 0.99	5.41	–	–
313.15 K, c1 = 0.994	–	–	0.991
313.15 K, c1 = 1.485	6.54	–	–
313.15 K, c1 = 1.495	–	1064.7	1.243
313.15 K, c1 = 1.975	–	1086.1	1.574
313.15 K, c1 = 1.983	7.13	–	–
313.15 K, c1 = 2.467	–	1108.2	–
313.15 K, c1 = 2.476	7.22	–	–
313.15 K, c1 = 2.496	–	–	2.06
313.15 K, c1 = 3.032	–	–	2.765
313.15 K, c1 = 3.048	6.94	–	–
313.15 K, c1 = 3.063	–	1134	–
318.15 K, c1 = 0.478	–	–	0.721
318.15 K, c1 = 0.498	3.72	1015.7	–
318.15 K, c1 = 0.985	–	1039.3	–
318.15 K, c1 = 0.99	5.89	–	–
318.15 K, c1 = 0.994	–	–	0.895
318.15 K, c1 = 1.485	7.14	–	–
318.15 K, c1 = 1.495	–	1062.3	1.122
318.15 K, c1 = 1.975	–	1083.7	1.405
318.15 K, c1 = 1.983	7.82	–	–
318.15 K, c1 = 2.467	–	1105.5	–
318.15 K, c1 = 2.476	7.98	–	–
318.15 K, c1 = 2.496	–	–	1.821
318.15 K, c1 = 3.032	–	–	2.426
318.15 K, c1 = 3.048	7.72	–	–
318.15 K, c1 = 3.063	–	1131.3	–
323.15 K, c1 = 0.478	–	–	0.661
323.15 K, c1 = 0.498	4.04	1013.4	–
323.15 K, c1 = 0.985	–	1036.9	–
323.15 K, c1 = 0.99	6.38	–	–
323.15 K, c1 = 0.994	–	–	0.817
323.15 K, c1 = 1.485	7.76	–	–
323.15 K, c1 = 1.495	–	1059.8	1.014
323.15 K, c1 = 1.975	–	1081.1	1.268
323.15 K, c1 = 1.983	8.52	–	–
323.15 K, c1 = 2.467	–	1102.8	–
323.15 K, c1 = 2.476	8.73	–	–
323.15 K, c1 = 2.496	–	–	1.629
323.15 K, c1 = 3.032	–	–	2.146
323.15 K, c1 = 3.048	8.52	–	–
323.15 K, c1 = 3.063	–	1128.4	–
328.15 K, c1 = 0.478	–	–	0.606
328.15 K, c1 = 0.498	4.37	1011.1	–
328.15 K, c1 = 0.985	–	1034.5	–
328.15 K, c1 = 0.99	6.87	–	–
328.15 K, c1 = 0.994	–	–	0.75
328.15 K, c1 = 1.485	8.38	–	–
328.15 K, c1 = 1.495	–	1057.3	0.924
328.15 K, c1 = 1.975	–	1078.4	1.148
328.15 K, c1 = 1.983	9.22	–	–
328.15 K, c1 = 2.467	–	1100.2	–
328.15 K, c1 = 2.476	9.5	–	–
328.15 K, c1 = 2.496	–	–	1.467
328.15 K, c1 = 3.032	–	–	1.912
328.15 K, c1 = 3.048	9.33	–	–
328.15 K, c1 = 3.063	–	1125.4	–
333.15 K, c1 = 0.478	–	–	0.559
333.15 K, c1 = 0.498	4.68	1008.7	–
333.15 K, c1 = 0.985	–	1032	–
333.15 K, c1 = 0.99	7.37	–	–
333.15 K, c1 = 0.994	–	–	0.687
333.15 K, c1 = 1.485	8.99	–	–
333.15 K, c1 = 1.495	–	1054.6	0.847
333.15 K, c1 = 1.975	–	1075.7	1.047
333.15 K, c1 = 1.983	9.93	–	–
333.15 K, c1 = 2.467	–	1097.2	–
333.15 K, c1 = 2.476	10.3	–	–
333.15 K, c1 = 2.496	–	–	1.326
333.15 K, c1 = 3.032	–	–	1.718
333.15 K, c1 = 3.048	10.1	–	–
333.15 K, c1 = 3.063	–	1122.4	–
338.15 K, c1 = 0.478	–	–	0.52
338.15 K, c1 = 0.498	5.01	1006	–
338.15 K, c1 = 0.985	–	1029.3	–
338.15 K, c1 = 0.99	7.87	–	–
338.15 K, c1 = 0.994	–	–	0.638
338.15 K, c1 = 1.485	9.62	–	–
338.15 K, c1 = 1.495	–	1051.8	0.778
338.15 K, c1 = 1.975	–	1072.9	0.96
338.15 K, c1 = 1.983	10.7	–	–
338.15 K, c1 = 2.467	–	1094.3	–
338.15 K, c1 = 2.476	11	–	–
338.15 K, c1 = 2.496	–	–	1.206
338.15 K, c1 = 3.032	–	–	1.546
338.15 K, c1 = 3.048	11	–	–
338.15 K, c1 = 3.063	–	1119.4	–
343.15 K, c1 = 0.478	–	–	0.484
343.15 K, c1 = 0.498	5.34	1003.1	–
343.15 K, c1 = 0.985	–	1026.4	–
343.15 K, c1 = 0.99	8.38	–	–
343.15 K, c1 = 0.994	–	–	0.591
343.15 K, c1 = 1.485	10.2	–	–
343.15 K, c1 = 1.495	–	1049	0.729
343.15 K, c1 = 1.975	–	1069.9	0.881
343.15 K, c1 = 1.983	11.3	–	–
343.15 K, c1 = 2.467	–	1091.2	–
343.15 K, c1 = 2.476	11.8	–	–
343.15 K, c1 = 2.496	–	–	1.102
343.15 K, c1 = 3.032	–	–	1.408
343.15 K, c1 = 3.048	11.8	–	–
343.15 K, c1 = 3.063	–	1116.2	–
